Reference: US20240408086A1, “USE OF LUVADAXISTAT FOR THE TREATMENT OF COGNITIVE IMPAIRMENT” (TAKEDA PHARMACEUTICAL COMPANY LIMITED, priority 2021, published 2024)

Tested on: adult patients with persistent negative symptoms of schizophrenia
Assay type: in vivo, human
Source text: To assess changes in cognitive impairment associated with schizophrenia (CIAS), secondary endpoints included the 12-week change from baseline in the Brief Assessment of Cognition in Schizophrenia (BACS) composite score, a measure of cognition across multiple domains, and the Schizophrenia Cognition Rating Scale (SCORS) score, a measure of day-to-day cognitive functioning requiring input from an adult informant. Secondary endpoints were not corrected for multiplicity.
The BACS is specifically designed to measure treatment-related improvements in cognition and includes alternate forms. BACS is a reliable and sensitive measure of cognitive function in schizophrenia. The BACS is a cognition assessment battery that assesses 6 domains of cognitive function found to be consistently impaired in schizophrenia: verbal memory; working memory; motor speed; attention; executive functions; and verbal fluency. The primary measure from each test of the BACS is standardized by creating T-scores whereby the mean of the test session of a matched reference healthy participant is set to 50 and the standard deviation set to 10.

[1] = 125 mg once daily, preliminary analysis
[2] = 500 mg once daily, MMRM, preliminary analysis
[3] = 500 mg once daily, preliminary analysis

Q: For `O=c1[nH]nc(CCc2ccc(C(F)(F)F)cc2)cc1O` [Compound (I), luvadaxistat], which “BACS Working Memory Cognition Domain, Change from Baseline to Week 6, Median” value [1] is on record?
A: The value was 2.0.

Q: And the “BACS Working Memory Cognition Domain, Change from Baseline to Week 12, Mean (SD)” value [1]?
A: Its value is 1.8 (7.40).

Q: And the “BACS Working Memory Cognition Domain, Change from Baseline to Week 12, Median” value [1]?
A: The value was 0.0.

Q: And the “BACS Working Memory Cognition Domain, Week 6, Mean (SD)” value [1]?
A: The value was 41.0 (11.17).

Q: What about the “BACS Working Memory Cognition Domain, Week 6, Median” value [1] of the same compound?
A: Its value is 41.0.

Q: What about the “BACS Working Memory Cognition Domain, Week 12, Mean (SD)” value [1] of the same compound?
A: Its value is 41.7 (13.58).

Q: And the “BACS Working Memory Cognition Domain, Week 12, Median” value [1]?
A: The value was 40.0.

Q: And the “BACS Attention Cognition Domain, Change from Baseline to Week 6, Mean (SD)” value (125 mg, Week 6)?
A: The value was 2.2 (6.07).

Q: What about the “BACS Attention Cognition Domain, Change from Baseline to Week 6, Median” value (125 mg, Week 6) of the same compound?
A: The value was 2.0.

Q: And the “BACS Attention Cognition Domain, Week 6, Mean (SD)” value (125 mg, Week 6)?
A: Its value is 36.7 (12.72).

Q: What about the “BACS Attention Cognition Domain, Week 6, Median” value (125 mg, Week 6) of the same compound?
A: The value was 37.0.

Q: And the “BACS Executive Functions Cognition Domain, Change from Baseline to Week 6, Mean (SD)” value (125 mg, Week 6)?
A: Its value is 0.8 (9.01).

Q: What about the “BACS Executive Functions Cognition Domain, Change from Baseline to Week 6, Median” value (125 mg, Week 6) of the same compound?
A: The value was 0.0.

Q: What about the “BACS Executive Functions Cognition Domain, Week 6, Mean (SD)” value (125 mg, Week 6) of the same compound?
A: The value was 46.3 (16.06).

Q: And the “BACS Executive Functions Cognition Domain, Week 6, Median” value (125 mg, Week 6)?
A: Its value is 50.0.

Q: And the “BACS Verbal Fluency Cognition Domain, Change from Baseline to Week 6, Mean (SD)” value (125 mg, Week 6)?
A: Its value is 0.8 (4.53).

Q: And the “BACS Verbal Fluency Cognition Domain, Change from Baseline to Week 6, Median” value (125 mg, Week 6)?
A: The value was 1.0.

Q: What about the “BACS Verbal Fluency Cognition Domain, Week 6, Mean (SD)” value (125 mg, Week 6) of the same compound?
A: Its value is 39.1 (8.98).

Q: What about the “BACS Verbal Fluency Cognition Domain, Week 6, Median” value (125 mg, Week 6) of the same compound?
A: Its value is 40.0.

Q: What about the “BACS Attention Cognition Domain, Adjusted Change from Baseline to Week 6, LS Mean (SE)” value (125 mg, Week 6, MMRM) of the same compound?
A: The value was 2.2 (0.88).

Q: What about the “BACS Attention Cognition Domain, Difference from Placebo for Week 6, LS Mean (SE)” value (125 mg, Week 6, MMRM) of the same compound?
A: Its value is 1.2 (1.12).

Q: What about the “BACS Executive Functions Cognition Domain, Adjusted Change from Baseline to Week 6, LS Mean (SE)” value (125 mg, Week 6, MMRM) of the same compound?
A: Its value is 0.8 (1.19).

Q: And the “BACS Executive Functions Cognition Domain, Difference from Placebo for Week 6, LS Mean (SE)” value (125 mg, Week 6, MMRM)?
A: The value was 2.0 (1.53).

Q: And the “BACS Verbal Fluency Cognition Domain, Adjusted Change from Baseline to Week 6, LS Mean (SE)” value (125 mg, Week 6, MMRM)?
A: Its value is 0.7 (0.68).

Q: And the “BACS Verbal Fluency Cognition Domain, Difference from Placebo for Week 6, LS Mean (SE)” value (125 mg, Week 6, MMRM)?
A: Its value is 0.6 (0.87).

Q: What about the “BACS Attention Cognition Domain, Change from Baseline to Week 12, Mean (SD)” value (125 mg, Week 12) of the same compound?
A: The value was 1.2 (6.41).

Q: And the “BACS Attention Cognition Domain, Change from Baseline to Week 12, Median” value (125 mg, Week 12)?
A: Its value is 2.0.

Q: And the “BACS Attention Cognition Domain, Week 12, Mean (SD)” value (125 mg, Week 12)?
A: Its value is 36.2 (12.21).

Q: What about the “BACS Attention Cognition Domain, Week 12, Median” value (125 mg, Week 12) of the same compound?
A: The value was 36.0.

Q: What about the “BACS Executive Functions Cognition Domain, Change from Baseline to Week 12, Mean (SD)” value (125 mg, Week 12) of the same compound?
A: Its value is 2.0 (8.79).

Q: What about the “BACS Executive Functions Cognition Domain, Change from Baseline to Week 12, Median” value (125 mg, Week 12) of the same compound?
A: The value was 3.0.

Q: What about the “BACS Executive Functions Cognition Domain, Week 12, Mean (SD)” value (125 mg, Week 12) of the same compound?
A: The value was 47.6 (13.17).

Q: And the “BACS Executive Functions Cognition Domain, Week 12, Median” value (125 mg, Week 12)?
A: The value was 51.0.

Q: And the “BACS Verbal Fluency Cognition Domain, Change from Baseline to Week 12, Mean (SD)” value (125 mg, Week 12)?
A: The value was 2.1 (5.59).

Q: And the “BACS Verbal Fluency Cognition Domain, Change from Baseline to Week 12, Median” value (125 mg, Week 12)?
A: Its value is 2.0.

Q: And the “BACS Verbal Fluency Cognition Domain, Week 12, Mean (SD)” value (125 mg, Week 12)?
A: The value was 40.6 (9.54).

Q: What about the “BACS Verbal Fluency Cognition Domain, Week 12, Median” value (125 mg, Week 12) of the same compound?
A: The value was 39.0.

Q: And the “BACS Attention Cognition Domain, Adjusted Change from Baseline to Week 12, LS Mean (SE)” value (125 mg, Week 12, MMRM)?
A: Its value is 1.4 (1.01).

Q: And the “BACS Attention Cognition Domain, Difference from Placebo for Week 12, LS Mean (SE)” value (125 mg, Week 12, MMRM)?
A: The value was −0.5 (1.29).

Q: And the “BACS Executive Functions Cognition Domain, Adjusted Change from Baseline to Week 12, LS Mean (SE)” value (125 mg, Week 12, MMRM)?
A: The value was 2.0 (1.09).

Q: What about the “BACS Executive Functions Cognition Domain, Difference from Placebo for Week 12, LS Mean (SE)” value (125 mg, Week 12, MMRM) of the same compound?
A: Its value is 1.4 (1.38).

Q: What about the “BACS Verbal Fluency Cognition Domain, Adjusted Change from Baseline to Week 12, LS Mean (SE)” value (125 mg, Week 12, MMRM) of the same compound?
A: Its value is 1.9 (0.84).

Q: And the “BACS Verbal Fluency Cognition Domain, Difference from Placebo for Week 12, LS Mean (SE)” value (125 mg, Week 12, MMRM)?
A: Its value is 0.9 (1.07).

Q: And the “BACS Verbal Memory Cognition Domain, Difference from Placebo for Week 6, LS Mean (SE)” value (500 mg once daily, MMRM, one-sided unadjusted p 0.070, preliminary analysis)?
A: The value was 2.0 (1.33).

Q: What about the “BACS Composite Score, Difference from Placebo for Week 6, LS Mean (SE)” value (500 mg once daily, MMRM, one-sided unadjusted p 0.194, preliminary analysis) of the same compound?
A: Its value is 0.9 (1.04).

Q: And the “BACS Composite Score, Difference from Placebo for Week 12, LS Mean (SE)” value (500 mg once daily, MMRM, one-sided unadjusted p 0.260, preliminary analysis)?
A: Its value is 0.8 (1.20).

Q: And the “BACS Verbal Memory Cognition Domain, Difference from Placebo for Week 12, LS Mean (SE)” value (500 mg once daily, MMRM, one-sided unadjusted p 0.329, preliminary analysis)?
A: Its value is 0.7 (1.49).

Q: And the “BACS Motor Speed Cognition Domain, Difference from Placebo for Week 12, LS Mean (SE)” value (500 mg once daily, MMRM, one-sided unadjusted p 0.405, preliminary analysis)?
A: The value was 0.3 (1.22).

Q: What about the “BACS Working Memory Cognition Domain, Difference from Placebo for Week 12, LS Mean (SE)” value (500 mg once daily, MMRM, one-sided unadjusted p 0.637, preliminary analysis) of the same compound?
A: Its value is −0.5 (1.40).

Q: And the “BACS Working Memory Cognition Domain, Difference from Placebo for Week 6, LS Mean (SE)” value (500 mg once daily, MMRM, one-sided unadjusted p 0.788, preliminary analysis)?
A: The value was −0.9 (1.19).

Q: What about the “BACS Motor Speed Cognition Domain, Difference from Placebo for Week 6, LS Mean (SE)” value (500 mg once daily, MMRM, one-sided unadjusted p 0.812, preliminary analysis) of the same compound?
A: Its value is −1.1 (1.30).

Q: What about the “BACS Composite Score, Adjusted Change from Baseline to Week 6, LS Mean (SE)” value [2] of the same compound?
A: The value was 0.5 (0.87).

Q: What about the “BACS Composite Score, Adjusted Change from Baseline to Week 12, LS Mean (SE)” value [2] of the same compound?
A: Its value is 1.5 (0.99).

Q: What about the “BACS Motor Speed Cognition Domain, Adjusted Change from Baseline to Week 6, LS Mean (SE)” value [2] of the same compound?
A: The value was −1.3 (1.07).

Q: What about the “BACS Motor Speed Cognition Domain, Adjusted Change from Baseline to Week 12, LS Mean (SE)” value [2] of the same compound?
A: The value was −0.2 (1.02).

Q: And the “BACS Verbal Memory Cognition Domain, Adjusted Change from Baseline to Week 6, LS Mean (SE)” value [2]?
A: Its value is 0.7 (1.11).

Q: What about the “BACS Verbal Memory Cognition Domain, Adjusted Change from Baseline to Week 12, LS Mean (SE)” value [2] of the same compound?
A: Its value is 0.0 (1.23).

Q: And the “BACS Working Memory Cognition Domain, Adjusted Change from Baseline to Week 6, LS Mean (SE)” value [2]?
A: Its value is −0.9 (0.98).

Q: What about the “BACS Working Memory Cognition Domain, Adjusted Change from Baseline to Week 12, LS Mean (SE)” value [2] of the same compound?
A: Its value is 0.2 (1.15).

Q: And the “BACS Composite Score, Change from Baseline to Week 6, Mean (SD)” value [3]?
A: The value was 1.5 (7.57).

Q: What about the “BACS Composite Score, Change from Baseline to Week 6, Median” value [3] of the same compound?
A: Its value is 1.0.

Q: What about the “BACS Composite Score, Change from Baseline to Week 12, Mean (SD)” value [3] of the same compound?
A: Its value is 3.0 (7.98).

Q: And the “BACS Composite Score, Change from Baseline to Week 12, Median” value [3]?
A: The value was 3.0.
